Where a name gives a salt, the structure may show the parent alone.
Target: T1, human recombinant HPK1 (Homo sapiens, UniProt Q92918)
T1 construct: purchased BPS Bioscience
Assay: Inhibitory activity against human recombinant HPK1 (TR-FRET)
Assay type: biochemical
Conditions: ULight-p70S6K peptide, ATP at Km, room temperature, 1 hour, 0.32 to 1000 nM compound
Procedure, shortened: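 IC50 classes A–D use 10, 50 and 100 nM cut-offs, derived from TR-FRET signal inhibition relative to DMSO controls. Human recombinant HPK1 phosphorylated ULight-p70S6K peptide at Km ATP for 1 h, room temperature, pH 7.4; test range 0.32–1000 nM final, detection with Eu-labelled antibody after EDTA quench.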

T1 sequence (Q92918 whole entry): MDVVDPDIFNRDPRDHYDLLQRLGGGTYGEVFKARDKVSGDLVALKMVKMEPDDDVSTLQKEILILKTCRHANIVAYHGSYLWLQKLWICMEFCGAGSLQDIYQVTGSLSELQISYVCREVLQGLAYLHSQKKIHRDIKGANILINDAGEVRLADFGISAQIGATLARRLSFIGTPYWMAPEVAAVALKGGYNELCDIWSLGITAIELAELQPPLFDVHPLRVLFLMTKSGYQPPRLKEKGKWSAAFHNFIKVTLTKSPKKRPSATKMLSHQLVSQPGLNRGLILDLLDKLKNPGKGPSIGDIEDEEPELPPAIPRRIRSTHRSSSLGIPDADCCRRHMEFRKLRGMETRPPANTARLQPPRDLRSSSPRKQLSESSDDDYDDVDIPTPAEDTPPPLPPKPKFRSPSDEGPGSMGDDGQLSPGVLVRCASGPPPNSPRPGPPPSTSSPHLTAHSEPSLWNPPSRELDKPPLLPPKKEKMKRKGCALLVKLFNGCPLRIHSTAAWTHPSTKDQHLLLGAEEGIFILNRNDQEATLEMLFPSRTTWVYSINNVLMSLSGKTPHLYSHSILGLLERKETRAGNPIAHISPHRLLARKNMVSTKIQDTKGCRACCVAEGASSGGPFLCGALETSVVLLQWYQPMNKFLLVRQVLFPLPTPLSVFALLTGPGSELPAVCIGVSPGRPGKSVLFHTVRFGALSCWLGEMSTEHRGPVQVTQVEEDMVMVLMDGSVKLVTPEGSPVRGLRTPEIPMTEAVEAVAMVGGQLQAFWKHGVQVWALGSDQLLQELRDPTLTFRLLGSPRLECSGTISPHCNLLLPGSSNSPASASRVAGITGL

Row | Compound | IC50 [nM]
1 | COc1cccc(F)c1-c1nc(Nc2cc(N3CCC[C@H](O)C3)c(-c3cnn(C4CCOCC4)c3)cn2)ccc1Cl [Example 75, (3S)-1-(2-((5-chloro-6-(2-fluoro-6-methoxyphenyl)pyridin-2-yl)amino)-5-(1-(tetrahydro-2H-pyran-4-yl)-1H-pyrazol-4-yl)pyridin-4-yl)piperidin-3-ol] | ≤ 10
2 | COc1cccc(F)c1-c1nccc(Nc2cc(N3CC[C@H](CO)[C@@H](O)C3)c(-c3cnn(C4CCOCC4)c3)cn2)n1 [Example 95, (3R,4R)-1-(2-((2-(2-fluoro-6-methoxyphenyl)pyrimidin-4-yl)amino)-5-(1-(tetrahydro-2H-pyran-4-yl)-1H-pyrazol-4-yl)pyridin-4-yl)-4-(hydroxymethyl)piperidin-3-ol] | ≤ 10
3 | COc1cncc(-c2nccc(Nc3cc(N4CCC[C@H](O)C4)c(C(=O)C4CC4)cn3)n2)c1 [Example 3, (S)-cyclopropyl(4-(3-hydroxypiperidin-1-yl)-6-((2-(5-methoxypyridin-3-yl)pyrimidin-4-yl)amino)pyridin-3-yl)methanone] | 50 to 100
4 | COc1cccc(F)c1-c1nccc(Nc2cc(N3CCC[C@H](N)C3)c(-c3ccc(N4CCCC4)nc3)cn2)n1 [Example 119, (S)-4-(3-aminopiperidin-1-yl)-N-(2-(2-fluoro-6-methoxyphenyl)pyrimidin-4-yl)-6′-(pyrrolidin-1-yl)-[3,3′-bipyridin]-6-amine hydrochloride] | ≤ 10
5 | COc1cccc(F)c1-c1nccc(Nc2cc(N3CCC[C@H](O)C3)c(-c3cnn(C4CCOCC4)c3)cn2)n1 [Example 7, (S)-1-(2-((2-(2-fluoro-6-methoxyphenyl)pyrimidin-4-yl)amino)-5-(1-(tetrahydro-2H-pyran-4-yl)-1H-pyrazol-4-yl)pyridin-4-yl)piperidin-3-ol] | ≤ 10
6 | COc1cccc(F)c1-c1nc(Nc2cc(N3CC[C@@H](N)[C@H](O)C3)c(-c3cnn(C(F)F)c3)cn2)ccc1C#N [Example 326, 6-((4-((3R,4R)-4-amino-3-hydroxypiperidin-1-yl)-5-(1-(difluoromethyl)-1H-pyrazol-4-yl)pyridin-2-yl)amino)-2-(2-fluoro-6-methoxyphenyl)nicotinonitrile] | ≤ 10
7 | COc1cccc(F)c1-c1nccc(Nc2cc(N3CCC(CCN(C)C)CC3)c(-c3ccc(N4CCOCC4)nc3)cn2)n1 [Example 149, 4-(4-(2-(dimethylamino)ethyl)piperidin-1-yl)-N-(2-(2-fluoro-6-methoxyphenyl)pyrimidin-4-yl)-6′-morpholino-[3,3′-bipyridin]-6-amine] | ≤ 10
8 | COc1cccc(F)c1-c1nc(Nc2cc(N3CCC[C@H](O)C3)c(C(=O)N[C@@H]3CC[C@H]3O)cn2)ccc1[N+](=O)[O-] [Example 197, 6-((6-(2-fluoro-6-methoxyphenyl)-5-nitropyridin-2-yl)amino)-N-((1R,2R)-2-hydroxycyclobutyl)-4-((S)-3-hydroxypiperidin-1-yl)nicotinamide] | ≤ 10
9 | COc1cccc(F)c1-c1nccc(Nc2cc(N3CCC4(CCN(C)C4)CC3)c(-c3cnn(C(F)F)c3)cn2)n1 [Example 135, N-(5-(1-(difluoromethyl)-1H-pyrazol-4-yl)-4-(2-methyl-2,8-diazaspiro[4.5]decan-8-yl)pyridin-2-yl)-2-(2-fluoro-6-methoxyphenyl)pyrimidin-4-amine] | ≤ 10
10 | COc1cccc(F)c1-c1nccc(Nc2cc(N3CCC[C@H](O)C3)c(C#Cc3cnn(C(F)(F)F)c3)cn2)n1 [Example 8, (S)-1-(2-((2-(2-fluoro-6-methoxyphenyl)pyrimidin-4-yl)amino)-5-((1-(trifluoromethyl)-1H-pyrazol-4-yl)ethynyl)pyridin-4-yl)piperidin-3-ol] | 10 to 50
11 | COc1cc(F)cc(F)c1-c1nccc(Nc2cc(N3CCC[C@H](N)C3)c(-c3cnn(CC(F)(F)F)c3)cn2)n1 [Example 109, (S)-N-(4-(3-aminopiperidin-1-yl)-5-(1-(2,2,2-trifluoroethyl)-1H-pyrazol-4-yl)pyridin-2-yl)-2-(2,4-difluoro-6-methoxyphenyl)pyrimidin-4-amine] | ≤ 10
12 | N[C@H]1CCCN(c2cc(Nc3ccnc(-c4cc5nccnc5cc4F)n3)ncc2-c2cnn(C(F)F)c2)C1 [Example 88, (S)-N-(4-(3-aminopiperidin-1-yl)-5-(1-(difluoromethyl)-1H-pyrazol-4-yl)pyridin-2-yl)-2-(7-fluoroquinoxalin-6-yl)pyrimidin-4-amine hydrochloride] | ≤ 10
13 | COc1cccc(F)c1-c1nc(Nc2cc(N3CCC[C@H](N)C3)c(C#Cc3cnn(C(F)(F)F)c3)cn2)ccc1F [Example 114, 4-((S)-3-aminopiperidin-1-yl)-N-(5-fluoro-6-(2-fluoro-6-methoxyphenyl)pyridin-2-yl)-5-((1-(trifluoromethyl)-1H-pyrazol-4-yl)ethynyl)pyridin-2-amine hydrochloride] | ≤ 10
14 | COc1cccc(F)c1-c1nccc(Nc2cc(N3CC[C@H](N)[C@H](F)C3)c(-c3cnn(C(F)F)c3)cn2)n1 [Example 307, N-(4-((3R,4S)-4-amino-3-fluoropiperidin-1-yl)-5-(1-(difluoromethyl)-1H-pyrazol-4-yl)pyridin-2-yl)-2-(2-fluoro-6-methoxyphenyl)pyrimidin-4-amine hydrochloride] | ≤ 10
15 | COc1cccc(F)c1-c1nccc(Nc2cc(N3CCC[C@H](N)C3)c(-c3cc(C)c4c(c3)CCC(=O)N4)cn2)n1 [Example 262, (S)-6-(4-(3-aminopiperidin-1-yl)-6-((2-(2-fluoro-6-methoxyphenyl)pyrimidin-4-yl)amino)pyridin-3-yl)-8-methyl-3,4-dihydroquinolin-2(1H)-one hydrochloride] | ≤ 10
16 | COc1cccc(F)c1-c1nc(Nc2cc(N3CCC[C@H](N)C3)c(-c3cnn(C(F)(F)F)c3)cn2)ccc1[N+](=O)[O-] [Example 154, 4-((S)-3-aminopiperidin-1-yl)-N-(6-(2-fluoro-6-methoxyphenyl)-5-nitropyridin-2-yl)-5-(1-(trifluoromethyl)-1H-pyrazol-4-yl)pyridin-2-amine hydrochloride] | ≤ 10
17 | COCCn1cc(-c2cnc(Nc3ccc(C(N)=O)c(-c4c(F)cccc4OC)n3)cc2N2CCC[C@H](O)C2)cn1 [Example 144, 2-(2-fluoro-6-methoxyphenyl)-6-((4-((S)-3-hydroxypiperidin-1-yl)-5-(1-(2-methoxyethyl)-1H-pyrazol-4-yl)pyridin-2-yl)amino)nicotinamide] | ≤ 10
18 | COc1cccc(F)c1-c1nccc(Nc2cc(N3C[C@@H](N)C[C@@H](F)C3)c(-c3cnn(C(F)F)c3)cn2)n1 [Example 303, N-(4-((3S,5R)-3-amino-5-fluoropiperidin-1-yl)-5-(1-(difluoromethyl)-1H-pyrazol-4-yl)pyridin-2-yl)-2-(2-fluoro-6-methoxyphenyl)pyrimidin-4-amine hydrochloride] | ≤ 10
19 | COc1cccc(F)c1-c1nccc(Nc2cc(N3CCC(CCN(C)C)CC3)c(-c3cnn(C(F)F)c3)cn2)n1 [Example 147, N-(5-(1-(difluoromethyl)-1H-pyrazol-4-yl)-4-(4-(2-(dimethylamino)ethyl)piperidin-1-yl)pyridin-2-yl)-2-(2-fluoro-6-methoxyphenyl)pyrimidin-4-amine] | ≤ 10
20 | COc1cc(F)cc(F)c1-c1nccc(Nc2cc(N3CC[C@@H](C)[C@H](N)C3)c(-c3cnn(C(F)F)c3)cn2)n1 [Example 211, N-(4-((3S,4R)-3-amino-4-methylpiperidin-1-yl)-5-(1-(difluoromethyl)-1H-pyrazol-4-yl)pyridin-2-yl)-2-(2,4-difluoro-6-methoxyphenyl)pyrimidin-4-amine hydrochloride] | ≤ 10
21 | COc1cc(F)cc(F)c1-c1nccc(Nc2cc(N3CC[C@@H](O)[C@H](N)C3)c(-c3cnn(C(F)F)c3)cn2)n1 [Example 213, (3R,4R)-3-amino-1-(2-((2-(2,4-difluoro-6-methoxyphenyl)pyrimidin-4-yl)amino)-5-(1-(difluoromethyl)-1H-pyrazol-4-yl)pyridin-4-yl)piperidin-4-ol hydrochloride] | ≤ 10
22 | 2-(2-fluoro-6-methoxyphenyl)-N-(4-(2-methyl-2,8-diazaspiro[4.5]decan-8-yl)-5-(1-(2,2,2-trifluoroethyl)-1H-pyrazol-4-yl)pyridin-2-yl)pyrimidin-4-amine [Example 136] | ≤ 10
23 | COc1cccc(F)c1-c1nc(Nc2cc(N3CCC[C@H](O)C3)c(-c3cnn(C(F)(F)F)c3)cn2)ccc1N [Example 178, (3S)-1-(2-((5-amino-6-(2-fluoro-6-methoxyphenyl)pyridin-2-yl)amino)-5-(1-(trifluoromethyl)-1H-pyrazol-4-yl)pyridin-4-yl)piperidin-3-ol] | ≤ 10
24 | COc1cccc(F)c1-c1nccc(Nc2cc(N3CCCC(NC(C)=O)C3)c(-c3cnn(C4CCOCC4)c3)cn2)n1 (centres unmarked) [Example 86, N-(1-(2-((2-(2-fluoro-6-methoxyphenyl)pyrimidin-4-yl)amino)-5-(1-(tetrahydro-2H-pyran-4-yl)-1H-pyrazol-4-yl)pyridin-4-yl)piperidin-3-yl)acetamide] | 50 to 100
25 | COc1cccc(F)c1-c1nccc(Nc2cc(N3CCC[C@H](N)C3)c(-c3cnn(CC(F)F)c3)cn2)n1 [Example 134, (S)-N-(4-(3-aminopiperidin-1-yl)-5-(1-(2,2-difluoroethyl)-1H-pyrazol-4-yl)pyridin-2-yl)-2-(2-fluoro-6-methoxyphenyl)pyrimidin-4-amine hydrochloride] | ≤ 10
26 | COc1cccc(F)c1-c1nccc(Nc2cc(N3CCC(F)(CN(C)C)CC3)c(-c3cnn(C4CCOCC4)c3)cn2)n1 [Example 46, N-(4-(4-((dimethylamino)methyl)-4-fluoropiperidin-1-yl)-5-(1-(tetrahydro-2H-pyran-4-yl)-1H-pyrazol-4-yl)pyridin-2-yl)-2-(2-fluoro-6-methoxyphenyl)pyrimidin-4-amine] | ≤ 10
